What was measured:
[1] = Molar enthalpy of transition or fusion; conditions: Crystal; DSC
[2] = molar heat capacity at constant pressure; conditions: 101.33 kPa, Small sample (50 mg) DSC
[3] = Crystal; for Normal melting temperature: DTA
[4] = molar enthalpy of vaporization or sublimation; conditions: 381.12 K, Static calorimetry

CCC(=O)c1ccc(O)cc1 [1-(4-hydroxyphenyl)-1-propanone]
Conditions	Molar enthalpy of transition or fusion [kcal/mol]	Normal melting temperature [°C]
[1]	7.56	–
[3]	–	148.5

[2], Crystal
Conditions	molar heat capacity at constant pressure [J/K/mol]
288.66 K	188.2
289.98 K	188.2
291.28 K	189.2
292.55 K	189.9
293.82 K	190.1
295.08 K	191.4
296.34 K	192.1
297.6 K	192.7
298.85 K	192.9
300.11 K	193.6
301.36 K	194.5
302.61 K	195.3
303.87 K	196.9
305.13 K	197.5
306.38 K	198.3
307.64 K	198.5
308.89 K	199.3
310.14 K	199.8
311.39 K	201
312.64 K	201.7
313.9 K	202.7
315.15 K	203.5
316.4 K	203.9
317.65 K	204.9
318.9 K	204.9
320.15 K	206.1
321.41 K	206.9
322.66 K	207.6
323.91 K	208.3
325.16 K	209.1
326.41 K	209.8
327.66 K	210.5
328.91 K	211.5
330.16 K	212
331.41 K	212.6
332.66 K	213.6
333.91 K	214.1
335.16 K	215
336.41 K	216.1
337.66 K	216.6
338.91 K	217.2
340.16 K	217.3
341.41 K	218.3
342.66 K	219.2
343.91 K	220.2
345.16 K	220.7
346.41 K	222
347.66 K	222.2
348.91 K	223.1
350.15 K	223.8
351.4 K	225
352.65 K	225.9
353.9 K	226.5
355.15 K	226.9
356.4 K	227.5
357.65 K	228.2
358.9 K	228.9
360.15 K	229.6
361.4 K	230.9
362.65 K	231.4
363.9 K	232.2
365.15 K	232.7
366.39 K	233.5
367.65 K	235.1
368.9 K	235.7
370.15 K	236.6
371.4 K	237.2
372.65 K	237.9
373.9 K	238.7
375.15 K	239.3
376.4 K	240.8
377.64 K	241.3
378.89 K	242.4
380.14 K	243.1
381.39 K	243.7
382.64 K	244.3
383.89 K	245.9

Conditions	mass density [kg/m3]
[3], 298 K, 101.33 kPa, X-ray diffraction	1273.1

Conditions	molar enthalpy [kcal/mol]
[4], Crystal	26.87

CCCCCCC(=O)c1ccc(O)cc1 [1-(4-hydroxyphenyl)-1-heptanone]
Conditions	Molar enthalpy of transition or fusion [kcal/mol]	Normal melting temperature [°C]
[1]	7.5	–
[3]	–	92

[2]
Conditions	molar heat capacity at constant pressure [J/K/mol]
288.67 K, Crystal	291
289.17 K, Crystal	292.2
289.67 K, Crystal	289.9
290.17 K, Crystal	290.9
290.68 K, Crystal	292.7
291.18 K, Crystal	295
291.68 K, Crystal	296.8
292.18 K, Crystal	295.6
292.69 K, Crystal	295.3
293.19 K, Crystal	296.8
293.69 K, Crystal	295
294.19 K, Crystal	297.4
294.69 K, Crystal	297.4
295.19 K, Crystal	296.8
295.69 K, Crystal	301
296.19 K, Crystal	302.3
296.7 K, Crystal	300.1
297.2 K, Crystal	300.6
297.7 K, Crystal	300.7
298.2 K, Crystal	300.2
298.7 K, Crystal	303
299.2 K, Crystal	302.5
299.7 K, Crystal	304.8
300.2 K, Crystal	307.5
300.7 K, Crystal	306.2
301.2 K, Crystal	305.9
301.7 K, Crystal	306.8
302.2 K, Crystal	306.5
302.7 K, Crystal	307.3
303.2 K, Crystal	308.7
303.7 K, Crystal	307.9
304.2 K, Crystal	309.2
304.7 K, Crystal	311.7
305.2 K, Crystal	310
305.7 K, Crystal	309.6
306.2 K, Crystal	311.9
306.7 K, Crystal	312.9
307.2 K, Crystal	311.4
307.7 K, Crystal	311.2
308.2 K, Crystal	310.6
308.7 K, Crystal	313.4
309.2 K, Crystal	314
309.7 K, Crystal	314.4
310.2 K, Crystal	315.8
310.7 K, Crystal	314.9
311.2 K, Crystal	316.7
311.7 K, Crystal	318
312.2 K, Crystal	317.3
312.7 K, Crystal	318.1
313.2 K, Crystal	319.2
313.7 K, Crystal	320.9
314.2 K, Crystal	320.5
314.7 K, Crystal	319.8
315.2 K, Crystal	319.7
315.7 K, Crystal	323.3
316.2 K, Crystal	322.8
316.7 K, Crystal	323.2
317.2 K, Crystal	324
317.7 K, Crystal	323.8
318.2 K, Crystal	325.7
318.7 K, Crystal	324.1
319.2 K, Crystal	327.1
319.7 K, Crystal	327.1
320.2 K, Crystal	324.7
320.7 K, Crystal	327.1
321.2 K, Crystal	328.9
321.7 K, Crystal	328.9
322.2 K, Crystal	330.3
322.7 K, Crystal	329.6
323.2 K, Crystal	331.2
323.7 K, Crystal	332
324.2 K, Crystal	330.5
324.7 K, Crystal	331.9
325.2 K, Crystal	333.5
325.7 K, Crystal	333.6
326.2 K, Crystal	334.4
326.7 K, Crystal	335
327.2 K, Crystal	335.2
327.7 K, Crystal	334.1
328.2 K, Crystal	335
328.7 K, Crystal	337.4
329.2 K, Crystal	336.3
329.7 K, Crystal	338.1
330.2 K, Crystal	338.7
330.7 K, Crystal	337.8
331.2 K, Crystal	338.5
331.7 K, Crystal	339.5
332.2 K, Crystal	340.3
332.7 K, Crystal	342.3
333.2 K, Crystal	341.3
333.7 K, Crystal	342.1
334.2 K, Crystal	343.3
334.7 K, Crystal	343.6
335.2 K, Crystal	343.9
335.7 K, Crystal	346.5
336.2 K, Crystal	344.9
336.7 K, Crystal	346.6
337.2 K, Crystal	346.4
337.7 K, Crystal	346.9
338.2 K, Crystal	349.4
338.7 K, Crystal	347.8
339.19 K, Crystal	348.2
339.69 K, Crystal	348.7
340.2 K, Crystal	350.4
340.7 K, Crystal	352.5
341.2 K, Crystal	350.7
341.7 K, Crystal	350.7
342.2 K, Crystal	351.4
342.7 K, Crystal	351.7
343.19 K, Crystal	353.4
343.69 K, Crystal	353.1
344.19 K, Crystal	353.4
344.69 K, Crystal	356.8
345.19 K, Crystal	357
345.69 K, Crystal	355.2
346.19 K, Crystal	357.3
346.69 K, Crystal	357.3
347.19 K, Crystal	358.3
347.69 K, Crystal	359.2
348.19 K, Crystal	360.3
348.69 K, Crystal	361.6
349.19 K, Crystal	362.4
349.69 K, Crystal	360.9
350.19 K, Crystal	361.8
350.69 K, Crystal	363.3
351.19 K, Crystal	364.3
351.69 K, Crystal	363.9
352.19 K, Crystal	363.4
352.69 K, Crystal	366
353.19 K, Crystal	365.4
353.69 K, Crystal	368.2
354.19 K, Crystal	369.3
354.69 K, Crystal	370
355.19 K, Crystal	372.4
355.69 K, Crystal	375.2
356.19 K, Crystal	373.6
356.69 K, Crystal	374.5
357.19 K, Crystal	374.8
357.69 K, Crystal	380
358.19 K, Crystal	380.1
358.69 K, Crystal	381.4
359.19 K, Crystal	382.3
359.69 K, Crystal	387
360.19 K, Crystal	391.3
360.69 K, Crystal	393.9
361.19 K, Crystal	397.9
361.69 K, Crystal	403.5
362.19 K, Crystal	413.1
362.69 K, Crystal	424.4
363.19 K, Crystal	446.7
370.2 K, Liquid	458.6
370.7 K, Liquid	460.1
371.19 K, Liquid	461.4
371.69 K, Liquid	461.5
372.19 K, Liquid	463.4
372.69 K, Liquid	462.1
373.19 K, Liquid	464.1
373.69 K, Liquid	465.7
374.19 K, Liquid	465.5
374.69 K, Liquid	467.4
375.19 K, Liquid	464.3
375.69 K, Liquid	466.6
376.19 K, Liquid	466.5
376.69 K, Liquid	466.6
377.19 K, Liquid	467.5
377.69 K, Liquid	468.1
378.19 K, Liquid	470.5
378.69 K, Liquid	469.8
379.19 K, Liquid	468.2
379.69 K, Liquid	471.2
380.19 K, Liquid	470
380.69 K, Liquid	474
381.19 K, Liquid	473.3
381.69 K, Liquid	474
382.19 K, Liquid	470.5
382.69 K, Liquid	473.3
383.19 K, Liquid	472.6
383.69 K, Liquid	473.7
384.19 K, Liquid	474.9
384.69 K, Liquid	477.4
385.19 K, Liquid	480
385.69 K, Liquid	481.1
386.19 K, Liquid	482.1
386.69 K, Liquid	479

Conditions	molar enthalpy [kcal/mol]
[4], Liquid	24.2

Reference: the NIST ThermoML archive (doi:10.1016/j.jct.2016.09.026)
